Test results taken from US8691986B2, “Azetidine and piperidine compounds useful as PDE10 inhibitors” (Amgen Inc., priority 2012, dated 2014).

Columns and labels:
human PDE2A1 = human PDE2A1 (Homo sapiens (Human), UniProt O00408); test: PDE2A inhibition, PDE IMAP TR-FRET assay; assay type: biochemical; details: FAM-cAMP substrate
Method: Purified human PDE2A1 and PDE10A2 enzymes were obtained from BPS Bioscience (San Diego, Calif.). IMAP™ TR-FRET progressive binding system, FAM-cAMP substrate were from Molecular Devices (Sunnyvale, Calif.).
The PDE IMAP assay was conducted in a 384-well black Greiner polypropylene plate (Sigma, St. Louis, Mo.). PDE inhibitors were serial diluted in 100% DMSO and dispensed into assay plate at […] per well using Echo® Liquid Handling System from LABCYTE. Ten μL of PDE enzyme in IMAP reaction buffer (10 mM Tris-HCl, pH 7.2, 10 mM MgCl2, 0.05% NaN3, and 0.01% Tween-20) was added into the assay wells. The PDE enzyme concentration used was based on each lot of enzyme activity, to ensure enzyme reaction falls in a linear range under assay condition. 1.4 nM of PDE2 or […] PDE10 were used in the assay system. Enzyme was pre-incubated with inhibitors for 60 minutes at room temperature before addition of 10 uL of substrate addition, which results in 100 nM of FAM-cAMP in the reaction. Enzyme reaction was allowed to proceed at room temperature for 90 min, and the reaction is stopped by 55 μl addition of binding reagent according to manufacturer's recommendation. The mixture is further incubated at room temperature for additional 4 hours, and signal was read on an Envision multimode reader (PerkinElmer). Fluorescence signals were measured at 520 nm and 485 nm. The signal ratio at 520/485 nm corresponded to the generation of reaction product of AMP, and it was used in all data analysis. Values from DMSO-treated wells were normalized to POC=100, and no-enzyme wells were normalized to POC=0. IC50 values were determined by using the Genedata Screener V9.0.1. The curve fitting algorithm used for dose response data analysis in Genedata Screener is a custom implementation of a robust curve-fitting algorithm called ROUT (Robust regression with outlier detection) and uses a four-parameter logistical (4 PL) Hill model.

PDE10 = PDE10 (Rattus norvegicus (Rat), UniProt Q9QYJ6); test: PDE10 ex vivo receptor occupancy (RO) screening in rat striatum; details: oral, 10 mpk, 1 h (footnote A)
Sequence of PDE10 (Q9QYJ6 whole entry): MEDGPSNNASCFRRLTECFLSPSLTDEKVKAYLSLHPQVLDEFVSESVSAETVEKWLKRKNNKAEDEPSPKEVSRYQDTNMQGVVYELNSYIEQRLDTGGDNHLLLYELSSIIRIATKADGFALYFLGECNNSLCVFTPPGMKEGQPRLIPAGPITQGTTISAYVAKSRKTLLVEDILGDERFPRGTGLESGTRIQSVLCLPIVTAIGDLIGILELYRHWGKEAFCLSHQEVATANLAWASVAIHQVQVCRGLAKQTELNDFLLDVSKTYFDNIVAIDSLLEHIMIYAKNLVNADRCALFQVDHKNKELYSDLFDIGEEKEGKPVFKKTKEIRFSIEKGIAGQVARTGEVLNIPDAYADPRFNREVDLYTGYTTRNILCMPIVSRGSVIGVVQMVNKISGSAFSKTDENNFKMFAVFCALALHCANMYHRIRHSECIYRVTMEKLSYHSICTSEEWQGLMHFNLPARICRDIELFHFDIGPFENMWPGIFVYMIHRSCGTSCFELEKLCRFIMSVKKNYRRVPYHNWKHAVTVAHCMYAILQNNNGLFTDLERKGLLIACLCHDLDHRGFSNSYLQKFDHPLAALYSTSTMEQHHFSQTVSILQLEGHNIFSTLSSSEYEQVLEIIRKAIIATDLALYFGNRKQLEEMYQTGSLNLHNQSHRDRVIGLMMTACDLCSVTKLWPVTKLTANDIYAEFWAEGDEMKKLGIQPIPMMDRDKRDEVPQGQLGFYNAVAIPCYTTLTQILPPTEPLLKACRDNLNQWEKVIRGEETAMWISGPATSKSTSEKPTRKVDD
Method: The ex vivo screening protocol was approved by Amgen's Institutional Animal Care and Use Committee (IACUC) and in accordance with the National Institutes of Health Guide for Care and Use of Laboratory Animals in facilities accredited by the Association for the Assessment and Accreditation of Laboratory Animal Care (AALAC).
PDE10 inhibitors were dissolved in 2% Hydroxypropylmethylcellulose (HPMC), 1% Tween-80, pH 2.2 with methanesulfonic acid. Male Sprague Dawley® rats weighing 180-225 g (4 per group) were dosed orally with either vehicle or PDE10 inhibitors (3 mg/kg or 10 mg/kg) and then returned to their home cage to allow for absorption of the compounds. After one hour (with 10 mg/kg PDE10 inhibitor) or four hours (with 3 mg/kg or 10 mg/kg PDE10 inhibitor) rats were sacrificed by CO2 inhalation. Blood was obtained by heart puncture and plasma was frozen and stored at −80° C. for exposure analysis. Brains were removed and immediately frozen in chilled methylbutane, and stored at −80° C. until cutting. Three coronal brain slices per brain containing the striatum were cut at […] using a cryostat and placed onto microscope slides, air-dried and stored at −20° C. For radioligand binding experiments, slides were thawed at room temperature and then incubated with 1 nM a tritium labeled tracer compound (insert citation) in binding buffer (150 mM Phosphate-buffered saline containing 2 mM MgCl2 and 100 mM DTT, pH 7.4) for 1 minute at 4° C. To assess non-specific binding, slides containing adjacent brain sections were incubated in the same solution with addition of […] of an unlabelled, structurally unrelated PDE10 antagonist. Afterwards slides were washed 3 times in ice-cold binding buffer, dipped into distilled water to remove buffer salts, and dried under a stream of cold air. Emission of beta particles from the sections was counted for 8 hours in a Beta Imager 2000 (Biospace, Paris, France) and digitized and analyzed using M3 Vision software (Biospace, Paris, France). Total binding radioactivity in the striatum was measured as cpm/mm^2 in hand-drawn regions of interest and averaged across the three sections per brain. Non-specific binding was subtracted to obtain specific binding values and percent occupancy was calculated by setting vehicle specific binding as 0% occupancy.

Sequence of human PDE2A1 (O00408 other isoform, or with tags, fused parts or gaps): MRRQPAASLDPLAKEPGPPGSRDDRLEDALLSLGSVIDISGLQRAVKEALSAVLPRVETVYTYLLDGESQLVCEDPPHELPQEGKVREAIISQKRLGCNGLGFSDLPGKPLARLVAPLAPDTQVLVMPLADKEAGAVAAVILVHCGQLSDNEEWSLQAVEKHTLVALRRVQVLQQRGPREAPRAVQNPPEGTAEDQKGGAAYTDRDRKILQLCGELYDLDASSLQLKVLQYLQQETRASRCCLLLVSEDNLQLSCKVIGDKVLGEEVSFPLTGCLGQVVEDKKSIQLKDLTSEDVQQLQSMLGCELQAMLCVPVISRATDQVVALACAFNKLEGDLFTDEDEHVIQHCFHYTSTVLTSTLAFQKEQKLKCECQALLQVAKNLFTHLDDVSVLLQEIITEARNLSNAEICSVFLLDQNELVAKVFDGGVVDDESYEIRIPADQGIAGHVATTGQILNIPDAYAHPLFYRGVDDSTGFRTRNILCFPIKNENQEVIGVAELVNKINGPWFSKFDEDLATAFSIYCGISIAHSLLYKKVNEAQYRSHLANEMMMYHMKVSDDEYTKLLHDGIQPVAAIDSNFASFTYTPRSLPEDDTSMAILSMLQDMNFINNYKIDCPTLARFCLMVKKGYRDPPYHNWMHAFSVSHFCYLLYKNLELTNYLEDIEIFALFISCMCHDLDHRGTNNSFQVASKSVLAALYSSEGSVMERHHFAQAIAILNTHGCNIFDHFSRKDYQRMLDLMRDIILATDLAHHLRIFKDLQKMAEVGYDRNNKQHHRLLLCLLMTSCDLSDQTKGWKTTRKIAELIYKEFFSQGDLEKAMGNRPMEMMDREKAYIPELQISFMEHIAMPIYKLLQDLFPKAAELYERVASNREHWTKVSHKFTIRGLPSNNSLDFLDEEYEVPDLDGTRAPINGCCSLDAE

Compound	IC50 (human PDE2A1) [µM]	receptor occupancy at 10 mg/kg (PDE10) [%]
NC(=O)c1ccc(-c2nccnc2C2CN(c3ccc4ccccc4n3)C2)cc1 [Compound 15, 4-(3-(1-(2-quinolinyl)-3-azetidinyl)-2-pyrazinyl)benzamide, reference compound]	10	47.7
NC(=O)c1ccc(-c2nccnc2C2CN(c3ccc4ccccc4n3)C2)cc1F [Compound 16, 2-fluoro-4-(3-(1-(quinolin-2-yl)azetidin-3-yl)pyrazin-2-yl)benzamide, reference compound]	3.3	52.3
CNC(=O)c1cccc(-c2nccnc2C2CN(c3ccc4ccccc4n3)C2)c1 [Compound 17, N-methyl-3-(3-(1-(quinolin-2-yl)azetidin-3-yl)pyrazin-2-yl)benzamide, reference compound]	2.16	72
